Measured values reported in article PMC10090446, “Population pharmacokinetic analysis and dosing optimization of polymyxin B in critically ill patients” (Frontiers in Pharmacology, 2023).
Positions of bridges follow the written chain, without caps; N, C: chain ends. Non-standard residues stand in square brackets, D forms with d. Residues, ends and D or L forms follow the SMILES beside them. *: point of attachment. X1 = CC[C@H](C)CCCCC(=O)*; Dab = NCC[C@H](N)C(=O)O

Assays:
[1] = Steady-state plasma concentrations of polymyxin B (total of B1, B2, B1-Ile) by LC-MS/MS; assay type: in vivo; details: human, iv, read-out: OUT (observed polymyxin B plasma concentration)
Text: We gather data from critically ill patients (≥18 years old) who were given intravenous drip polymyxin B treatment with blood concentration monitoring at the hospital from November 2021 to September 2022. The attending physician decided to administer polymyxin B. At the same time, patients who received continuous renal replacement therapy (CRRT) (n = 10) or extracorporeal membrane oxygenation (ECMO) (n = 2) at the time of blood collection were excluded. Patients’ information, including gender, age, WT, serum creatinine (Scr), CCR, ALB, APACHE-II, infection diagnosis, and pathogenic bacteria, were obtained from the electronic system for medical records. CCR was generated by adopting the Cockcroft—Gault equation with WT and age ([Cucci et al., 2022]). The Ethical Committees of the Second Affiliated Hospital of the South China University of Technology authorized the study (K-2022-020-01).
Patients were treated with polymyxin B, and plasma samples were collected ≥ 48 h after the treatment. Each patient contributed clinical samples, of which 37.5% (n = 24) were sampled with troughs (within 1 h before administration), 35.9% (n = 23) were sampled with peaks (within 1 h after the end of the infusion), and 26.6% (n = 17) were sampled at 6-8 h after the infusion. The dosing regimens of polymyxin B were a loading dose of 100 mg–150 mg and a maintenance dose of 50 mg–75 mg q12h, and the infusion duration was about 1–2 h. In preparation for analysis, samples were centrifuged for 10 min at 3000 r min^-1 after collection, and the upper plasma after centrifugation was stored at −20°C.
According to previous studies, total polymyxin B1, polymyxin B2, and polymyxin B1-Ile concentrations in human blood plasma were quantified using LC-MS/MS ([Meng et al., 2016]; [Hee et al., 2017]). The standard used in our experiments was the USP standard with the batch number of R104F0. The chromatographic column was the Kinetex C18 (3 μm × 2.1 mm×100 mm. Phenomenex). A: B mobile phase was 0.1% formic acid to acetonitrile. With changes in the linear velocity ratio, gradient elution was as follows: 15% −15% B, 0–2.0 min; 15%–10% B, 2.01–4.0 min; 10%–30% B, 4.01–5.0 min; 15% B, 5.01 min; and 15%–15% B, 5.02–10 min. The flow rate was constrained to 0.8 mL min^-1, and the column temperature was set to 40°C. The parent/daughter ion mass ratios used in the mass spectrometry were m/z 602.6/241.2 (polymyxin B1 and B1-Ile) and m/z 595.6/202.1 (polymyxin B2). Plasma samples (100 μL) were collected from centrifuged blood samples, mixed with 500 μL precipitant (acetonitrile with 6.67% formic acid) and vortexed well for 1 min. The lower limit of quantification (LLOQ) of the bioanalytical method used for quantifying polymyxin B1, B2, and B1-Ile concentrations was 0.19, 0.02 and 0.02 mg L^-1, respectively. The linear relationships of polymyxin B1, B2, and B1-Ile concentrations in the range of 0.19–24.13 mg L^-1, 0.02–2.7 mg L^-1 and 0.02–2.38 mg L^-1 were considered good (R^2 = 0.99677, R^2 = 0.99656, R^2 = 0.99484) and the accuracy was within 95.3%–105.3%, 92.2%–104.8%, and 95.8%–105.4%. […] Finally, 200 μL of the supernatant from the centrifugation of the combination at 14,000 r min^-1 for 10 min was employed to measure the amounts of polymyxin B.

[2] = critically ill patients; ref Ye et al., 2022; cited from earlier work
Text: Over the last decade, more pathogenic bacteria have developed resistance, making many first-line antibiotics ineffective against infections ([Mohapatra et al., 2021]). Polymyxins were used extensively as salvage therapeutic agents for combating multidrug-resistant gram-negative bacteria (MDR-GNB) infections ([Falagas et al., 2021]). […] These specific physiolog ...

Q: What does the source list for `CC[C@H](C)CCCCC(=O)N[C@@H](CCN)C(=O)N[C@H](C(=O)N[C@@H](CCN)C(=O)N[C@H]1CCNC(=O)[C@H]([C@@H](C)O)NC(=O)[C@H](CCN)NC(=O)[C@H](CCN)NC(=O)[C@H](CC(C)C)NC(=O)[C@@H](Cc2ccccc2)NC(=O)[C@H](CCN)NC1=O)[C@@H](C)O` [polymyxin B] (X1-[Dab]T[Dab][Dab][Dab][dF]L[Dab][Dab]T; lactam 4-C)?
A: level at 325 h ([1]; patient ID 3, TIME 325, DOSE 100 at 0 then 50 from 12, ADDL 27, II 12, DUR 1, WT 57, CCR 61.5, ALB 33.8, APACHE 21, single sample): 6600 ng/mL; level at 330 h ([1]; patient ID 3, TIME 330, DOSE 100 at 0 then 50 from 12, ADDL 27, II 12, DUR 1, WT 57, CCR 61.5, ALB 33.8, APACHE 21, single sample): 2930 ng/mL; level at 336 h ([1]; patient ID 3, TIME 336, DOSE 100 at 0 then 50 from 12, ADDL 27, II 12, DUR 1, WT 57, CCR 61.5, ALB 33.8, APACHE 21, single sample): 3140 ng/mL; level at 59 h ([1]; patient ID 4, TIME 59, DOSE 100 at 0 then 50 every 12 to 48, DUR 1, WT 58, CCR 61.95, ALB 25.5, APACHE 28, single sample): 863 ng/mL; level at 64.5 h ([1]; patient ID 4, TIME 64.5, DOSE 100 at 0 then 50 every 12 to 60, DUR 1, WT 58, CCR 61.95, ALB 25.5, APACHE 28, single sample): 2330 ng/mL; level at 167.9 h ([1]; patient ID 5, TIME 167.9, DOSE 100 at 0 then 50 from 12, ADDL 15, II 12, DUR 1, WT 60, CCR 41.15, ALB 36.1, APACHE 21, single sample): 2900 ng/mL; level at 182 h ([1]; patient ID 5, TIME 182, DOSE 100 at 0 then 50 from 12, ADDL 15, II 12, DUR 1, WT 60, CCR 41.15, ALB 36.1, APACHE 21, single sample): 4510 ng/mL; level at 186 h ([1]; patient ID 5, TIME 186, DOSE 100 at 0 then 50 from 12, ADDL 15, II 12, DUR 1, WT 60, CCR 41.15, ALB 36.1, APACHE 21, single sample): 3290 ng/mL; level at 73.25 h ([1]; patient ID 10, TIME 73.25, DOSE 100 at 0 then 50 every 12 to 72, DUR 1, WT 62, CCR 72.12, ALB 33.9, APACHE 17, single sample): 6730 ng/mL; level at 79 h ([1]; patient ID 10, TIME 79, DOSE 100 at 0 then 50 every 12 to 72, DUR 1, WT 62, CCR 72.12, ALB 33.9, APACHE 17, single sample): 6230 ng/mL; level at 84.42 h ([1]; patient ID 10, TIME 84.42, DOSE 100 at 0 then 50 every 12 to 72, DUR 1, WT 62, CCR 72.12, ALB 33.9, APACHE 17, single sample): 3890 ng/mL; level at 98 h ([1]; patient ID 11, TIME 98, DOSE 100 at 0 then 50 every 12 to 96, DUR 2, WT 55, CCR 67.29, ALB 30.9, APACHE 46, single sample): 5200 ng/mL; level at 102 h ([1]; patient ID 11, TIME 102, DOSE 100 at 0 then 50 every 12 to 96, DUR 2, WT 55, CCR 67.29, ALB 30.9, APACHE 46, single sample): 2530 ng/mL; level at 105.5 h ([1]; patient ID 11, TIME 105.5, DOSE 100 at 0 then 50 every 12 to 96, DUR 2, WT 55, CCR 67.29, ALB 30.9, APACHE 46, single sample): 2180 ng/mL; level at 145 h ([1]; patient ID 13, TIME 145, DOSE 75 at 0 then 50 every 12 from 12 (ADDL 12), DUR 1, WT 57, CCR 41.39, ALB 24.4, APACHE 18, single measurement): 2590 ng/mL; level at 150 h ([1]; patient ID 13, TIME 150, DOSE 75 at 0 then 50 every 12 from 12 (ADDL 12), DUR 1, WT 57, CCR 41.39, ALB 24.4, APACHE 18, single measurement): 1830 ng/mL; level at 156 h ([1]; patient ID 13, TIME 156, DOSE 75 at 0 then 50 every 12 from 12 (ADDL 12), DUR 1, WT 57, CCR 41.39, ALB 24.4, APACHE 18, single measurement): 1090 ng/mL; level at 50.5 h ([1]; patient ID 14, TIME 50.5, DOSE 100 at 0, 50 at 12, 24, 36, 50.8, DUR 1, WT 60, CCR 111.4, ALB 25.4, APACHE 25, single measurement): 1140 ng/mL; level at 51.8 h ([1]; patient ID 14, TIME 51.8, DOSE 100 at 0, 50 at 12, 24, 36, 50.8, DUR 1, WT 60, CCR 111.4, ALB 25.4, APACHE 25, single measurement): 4060 ng/mL; level at 57.8 h ([1]; patient ID 14, TIME 57.8, DOSE 100 at 0, 50 at 12, 24, 36, 50.8, DUR 1, WT 60, CCR 111.4, ALB 25.4, APACHE 25, single measurement): 1820 ng/mL; level at 72.66 h ([1]; patient ID 15, TIME 72.66, DOSE 100 at 0, 50 at 12, 100 at 24, 75 at 36, 48, 60, WT 50, CCR 35.85, ALB 29.5, APACHE 39, single measurement): 3110 ng/mL; level at 54.67 h ([1]; patient ID 19, TIME 54.67, DOSE 100 at 0 then 50 every 12 from 12 (ADDL 3), DUR 1, WT 60, CCR 35.69, ALB 25.6, APACHE 19, single measurement): 1860 ng/mL; level at 60 h ([1]; patient ID 19, TIME 60, DOSE 100 at 0 then 50 every 12 from 12 (ADDL 3), DUR 1, WT 60, CCR 35.69, ALB 25.6, APACHE 19, single measurement): 1300 ng/mL; level at 73.45 h ([1]; patient ID 20, TIME 73.45, DOSE 100 at 0 then 50 every 12 from 12 (ADDL 6), DUR 1.45, WT 75, CCR 84.86, ALB 29.5, APACHE 18, single measurement): 4270 ng/mL; level at 77.45 h ([1]; patient ID 20, TIME 77.45, DOSE 100 at 0 then 50 every 12 from 12 (ADDL 6), DUR 1.45, WT 75, CCR 84.86, ALB 29.5, APACHE 18, single measurement): 2700 ng/mL; level at 84 h ([1]; patient ID 20, TIME 84, DOSE 100 at 0 then 50 every 12 from 12 (ADDL 6), DUR 1.45, WT 75, CCR 84.86, ALB 29.5, APACHE 18, single measurement): 1960 ng/mL; level at 50 h ([1]; patient ID 21, TIME 50, DOSE 150 at 0 then 75 every 12 from 12 (ADDL 4), DUR 2, WT 70, CCR 56.54, ALB 38.1, APACHE 40, single measurement): 7030 ng/mL; level at 54 h ([1]; patient ID 21, TIME 54, DOSE 150 at 0 then 75 every 12 from 12 (ADDL 4), DUR 2, WT 70, CCR 56.54, ALB 38.1, APACHE 40, single measurement): 3830 ng/mL; rate of reaching the standard polymyxin B exposure AUC at a typical clinical dose [2]: approximately 54.3%
